From ChEMBL document CHEMBL1127246, “1,2,5,6-tetrahydropyridine oxime ethers incorporating electron withdrawing groups are potent and selective muscarinic agonists” (Bioorg Med Chem Lett, 1994)

Columns and labels:
[1] = biological target: Muscarinic acetylcholine receptor (Rattus norvegicus) (UniProt P08482+P08483+P08485+P08911+P10980); experiment: Selectivity is the ratio of inhibitory activities against muscarinic receptors, determined using radioligand [3H]OXO-M and 3[H}-QND; type: protein assay
[2] = biological target: Muscarinic acetylcholine receptor; experiment: In vitro binding affinity against Muscarinic receptor in rat cerebral cortex using [3H]- oxotremorine-M (OXO-M) using as a radioligand; Value ranges from 120-180; type: tissue-based
[3] = biological target: Muscarinic acetylcholine receptor; experiment: In vitro binding affinity against Muscarinic receptor in rat cerebral cortex using [3H]- quinuclidinyl benzilate (QNB)using as a radioligand; Value ranges from 4700-6700; type: tissue-based
[4] = Ratio of compound in rat rhythmical slow wave activity assay vs efficacy causing 50% decrease in BP in rats; type: functional
[5] = biological target: Muscarinic acetylcholine receptor; experiment: In vitro binding affinity against Muscarinic receptor in rat cerebral cortex using [3H]- oxotremorine-M (OXO-M) using as a radioligand; Value ranges from 120-220; type: tissue-based
[6] = pKa value was measured; type: physicochemical
[7] = Partition coefficient (logP); type: physicochemical; details: octanol/water
Rattus norvegicus [8] = experiment: Effective dose causing 50% decrease in mean blood pressure upon intravenous administration in rats; type: functional
Rattus norvegicus [9] = experiment: Dose required to induce a standard increase in rhythmical slow wave activity (RSA) in rats when administered intravenously; type: functional
[10] = biological target: Muscarinic acetylcholine receptor; experiment: In vitro binding affinity against Muscarinic receptor in rat cerebral cortex using [3H]- quinuclidinyl benzilate (QNB)using as a radioligand; Value ranges from 4300-9500; type: tissue-based
[11] = biological target: Muscarinic acetylcholine receptor; experiment: In vitro binding affinity against Muscarinic receptor in rat cerebral cortex using [3H]- quinuclidinyl benzilate (QNB)using as a radioligand; Value ranges from 2100-2300; type: tissue-based
[12] = biological target: Muscarinic acetylcholine receptor; experiment: In vitro binding affinity against Muscarinic receptor in rat cerebral cortex using [3H]- quinuclidinyl benzilate (QNB)using as a radioligand; Value ranges from 15000-15000; type: tissue-based
[13] = biological target: Muscarinic acetylcholine receptor; experiment: In vitro binding affinity against Muscarinic receptor in rat cerebral cortex using [3H]- oxotremorine-M (OXO-M) using as a radioligand; Value ranges from 990-1300; type: tissue-based
[14] = biological target: Muscarinic acetylcholine receptor; experiment: In vitro binding affinity against Muscarinic receptor in rat cerebral cortex using [3H]- quinuclidinyl benzilate (QNB)using as a radioligand; Value ranges from 8000-8500; type: tissue-based
[15] = biological target: Muscarinic acetylcholine receptor; experiment: In vitro binding affinity against Muscarinic receptor in rat cerebral cortex using [3H]- oxotremorine-M (OXO-M) using as a radioligand; Value ranges from 330-620; type: tissue-based
[16] = biological target: Muscarinic acetylcholine receptor; experiment: In vitro binding affinity against Muscarinic receptor in rat cerebral cortex using [3H]- quinuclidinyl benzilate (QNB)using as a radioligand; Value ranges from 18000-23000; type: tissue-based
[17] = biological target: Muscarinic acetylcholine receptor; experiment: In vitro binding affinity against Muscarinic receptor in rat cerebral cortex using [3H]- oxotremorine-M (OXO-M) using as a radioligand; Value ranges from 46-110; type: tissue-based
[18] = biological target: Muscarinic acetylcholine receptor; experiment: In vitro binding affinity against Muscarinic receptor in rat cerebral cortex using [3H]- oxotremorine-M (OXO-M) using as a radioligand; Value ranges from 240-290; type: tissue-based
[19] = biological target: Muscarinic acetylcholine receptor; experiment: In vitro binding affinity against Muscarinic receptor in rat cerebral cortex using [3H]- quinuclidinyl benzilate (QNB)using as a radioligand; type: tissue-based
[20] = biological target: Muscarinic acetylcholine receptor; experiment: In vitro binding affinity against Muscarinic receptor in rat cerebral cortex using [3H]- oxotremorine-M (OXO-M) using as a radioligand; Value ranges from 65-260; type: tissue-based
[21] = biological target: Muscarinic acetylcholine receptor; experiment: In vitro binding affinity against Muscarinic receptor in rat cerebral cortex using [3H]- quinuclidinyl benzilate (QNB)using as a radioligand; Value ranges from 9700-23000; type: tissue-based
[22] = biological target: Muscarinic acetylcholine receptor; experiment: In vitro binding affinity against Muscarinic receptor in rat cerebral cortex using [3H]- oxotremorine-M (OXO-M) using as a radioligand; Value ranges from 28-58; type: tissue-based
[23] = biological target: Muscarinic acetylcholine receptor; experiment: In vitro binding affinity against Muscarinic receptor in rat cerebral cortex using [3H]- quinuclidinyl benzilate (QNB)using as a radioligand; Value ranges from 1500-7200; type: tissue-based
[24] = biological target: Muscarinic acetylcholine receptor; experiment: In vitro binding affinity against Muscarinic receptor in rat cerebral cortex using [3H]- oxotremorine-M (OXO-M) using as a radioligand; type: tissue-based
[25] = biological target: Muscarinic acetylcholine receptor; experiment: In vitro binding affinity against Muscarinic receptor in rat cerebral cortex using [3H]- quinuclidinyl benzilate (QNB)using as a radioligand; Value ranges from 9100-9600; type: tissue-based
[26] = biological target: Muscarinic acetylcholine receptor; experiment: In vitro binding affinity against Muscarinic receptor in rat cerebral cortex using [3H]- oxotremorine-M (OXO-M) using as a radioligand; Value ranges from 840-1200; type: tissue-based
[27] = biological target: Muscarinic acetylcholine receptor; experiment: In vitro binding affinity against Muscarinic receptor in rat cerebral cortex using [3H]- quinuclidinyl benzilate (QNB)using as a radioligand; Value ranges from 11000-17000; type: tissue-based
[28] = biological target: Muscarinic acetylcholine receptor; experiment: In vitro binding affinity against Muscarinic receptor in rat cerebral cortex using [3H]- oxotremorine-M (OXO-M) using as a radioligand; Value ranges from 2300-3500; type: tissue-based
[29] = biological target: Muscarinic acetylcholine receptor; experiment: In vitro binding affinity against Muscarinic receptor in rat cerebral cortex using [3H]- oxotremorine-M (OXO-M) using as a radioligand; Value ranges from 23-35; type: tissue-based
[30] = biological target: Muscarinic acetylcholine receptor; experiment: In vitro binding affinity against Muscarinic receptor in rat cerebral cortex using [3H]- quinuclidinyl benzilate (QNB)using as a radioligand; Value ranges from 1200-1800; type: tissue-based

CO/N=C(\Cl)C1=CCCNC1
Ratio [1]: 37
IC50 [2]: 150 nM
IC50 [3]: 5600 nM

CO/N=C(\C#N)C1=CCCN(C)C1
Ratio [4]: >6.3
IC50 [5]: 150 nM
pKa [6]: 7.65
Ratio [1]: 30
logP [7]: 1.76
ED50 (Rattus norvegicus [8]): > 1 mg/kg
ED Arec (Rattus norvegicus [9]): 0.16 mg/kg
IC50 [10]: 4500 nM

CO/N=C(\F)C1CN2CCC1CC2 (stereo not given)
Ratio [1]: 65
IC50 [11]: 2200 nM

CO/N=C(/C1=CCCN(C)C1)C(F)F
IC50 [12]: 15000 nM
Ratio [1]: 14
IC50 [13]: 1100 nM

CO/N=C(\CF)C1=CCCN(C)C1
Ratio [1]: 18
IC50 [14]: 8300 nM
IC50 [15]: 450 nM

CO/N=C/C1=CCCNC1
Ratio [4]: 3.5
pKa [6]: 9.18
Ratio [1]: 280
logP [7]: 1.01
IC50 [16]: 20000 nM
ED50 (Rattus norvegicus [8]): 0.067 mg/kg
IC50 [17]: 71 nM
ED Arec (Rattus norvegicus [9]): 0.019 mg/kg

CO/N=C(\Cl)C1=CCCN(C)C1
Ratio [1]: 11
IC50 [18]: 260 nM
IC50 [19]: 2800 nM

CO/N=C/C1=CCCN(C)C1 [MILAMELINE]
Ratio [4]: 1
pKa [6]: 8.21
Ratio [1]: 130
logP [7]: 1.45
IC50 [20]: 110 nM
IC50 [21]: 14000 nM
ED50 (Rattus norvegicus [8]): 0.15 mg/kg
ED Arec (Rattus norvegicus [9]): 0.15 mg/kg

CO/N=C(\F)C1=CCCN(C)C1
Ratio [4]: 0.74
pKa [6]: 7.39
Ratio [1]: 100
logP [7]: 1.48
ED50 (Rattus norvegicus [8]): 0.04 mg/kg
IC50 [22]: 39 nM
ED Arec (Rattus norvegicus [9]): 0.054 mg/kg
IC50 [23]: 4000 nM

CO/N=C(\F)C1=CCCNC1
Ratio [1]: 70
IC50 [19]: 2900 nM
IC50 [24]: 41 nM

CCN1CCC=C(/C(C#N)=N/OC)C1
Ratio [1]: 9
IC50 [25]: 9400 nM
IC50 [26]: 1000 nM

CO/N=C(\C#N)C1CN2CCC1CC2 (stereo not given)
Ratio [4]: >10.8
Ratio [1]: 14

CO/N=C(\CF)C1=CCCNC1
Ratio [1]: 40
IC50 [19]: 17000 nM
IC50 [24]: 420 nM

CO/N=C(\C1=CCCN(C)C1)C(F)(F)F
IC50 [24]: 11000 nM

CO/N=C(\Cl)C1CN2CCC1CC2 (stereo not given)
Ratio [1]: 16

CON=C(C1=CCCN(C)C1)C(F)(F)F
Ratio [1]: 5
IC50 [27]: 13000 nM
IC50 [28]: 2800 nM

CO/N=C(\C#N)C1=CCCNC1
Ratio [4]: >10
pKa [6]: 8.6
Ratio [1]: 54
logP [7]: 1.41
IC50 [29]: 28 nM
IC50 [30]: 1500 nM
ED50 (Rattus norvegicus [8]): > 0.32 mg/kg
ED Arec (Rattus norvegicus [9]): 0.032 mg/kg
